Measurements reported in ChEMBL document CHEMBL1909046, “DrugMatrix in vitro pharmacology data”.

Experiments:
[1] = biological target: T1, Alpha-1A adrenergic receptor (Rattus norvegicus, UniProt P43140); assay: DRUGMATRIX: Alpha-1A adrenergic receptor radioligand binding (ligand: prazosin); assay type: cell membranes, Wistar, Submaxillary gland, Membrane; settings: Not Active = under 50% inhibition at 10 µM
T1 sequence (P43140 whole entry): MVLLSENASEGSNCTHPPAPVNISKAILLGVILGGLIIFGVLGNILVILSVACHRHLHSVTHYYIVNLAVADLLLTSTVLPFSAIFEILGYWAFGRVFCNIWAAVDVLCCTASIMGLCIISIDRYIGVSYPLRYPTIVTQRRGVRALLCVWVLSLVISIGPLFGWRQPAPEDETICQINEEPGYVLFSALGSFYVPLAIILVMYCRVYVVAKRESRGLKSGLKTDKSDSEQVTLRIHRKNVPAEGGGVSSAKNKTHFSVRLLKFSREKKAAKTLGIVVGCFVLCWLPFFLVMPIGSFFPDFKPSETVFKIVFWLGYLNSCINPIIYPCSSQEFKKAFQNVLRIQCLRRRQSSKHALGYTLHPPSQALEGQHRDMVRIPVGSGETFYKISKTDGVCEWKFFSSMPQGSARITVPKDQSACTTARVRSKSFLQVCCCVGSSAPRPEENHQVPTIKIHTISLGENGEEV

[2] = DRUGMATRIX: beta-Lactamase enzyme inhibition (substrate: Nitrocefin); parameters: species or system Bacillus cereus; settings: Not Active = under 50% inhibition at 10 µM
[3] = biological target: Sodium-dependent dopamine transporter (Homo sapiens, UniProt Q01959); assay: DRUGMATRIX: Dopamine Transporter radioligand binding (ligand: [125I] RTI-55); assay type: cell membranes, CHO-K1, Membrane; settings: cho-k1; Not Active = under 50% inhibition at 10 µM
Sodium-dependent dopamine transporter, sequence (Q01959 whole entry): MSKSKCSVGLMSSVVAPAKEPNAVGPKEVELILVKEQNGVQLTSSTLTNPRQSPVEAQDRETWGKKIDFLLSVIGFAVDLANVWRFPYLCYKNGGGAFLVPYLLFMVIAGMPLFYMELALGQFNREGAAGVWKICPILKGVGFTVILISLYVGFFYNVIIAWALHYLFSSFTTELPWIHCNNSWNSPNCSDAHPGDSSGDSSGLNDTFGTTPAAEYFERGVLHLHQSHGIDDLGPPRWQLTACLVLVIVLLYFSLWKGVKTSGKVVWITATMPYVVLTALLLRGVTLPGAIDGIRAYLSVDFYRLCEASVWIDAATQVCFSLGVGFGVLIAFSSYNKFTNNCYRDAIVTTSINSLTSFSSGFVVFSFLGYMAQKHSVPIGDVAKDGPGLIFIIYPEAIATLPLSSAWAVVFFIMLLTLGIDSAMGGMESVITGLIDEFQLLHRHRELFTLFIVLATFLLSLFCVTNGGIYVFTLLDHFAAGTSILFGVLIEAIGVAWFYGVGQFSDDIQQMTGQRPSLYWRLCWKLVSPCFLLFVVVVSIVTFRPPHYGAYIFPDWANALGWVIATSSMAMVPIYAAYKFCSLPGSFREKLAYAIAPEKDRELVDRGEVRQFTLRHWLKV

[4] = DRUGMATRIX: Glutamate, NMDA, Agonism radioligand binding (ligand: [3H] CGP-39653); assay type: cell membranes, Rattus norvegicus, Wistar, Cerebral cortex, Membrane; settings: Not Active = under 50% inhibition at 10 µM
[5] = DRUGMATRIX: Glutamate, NMDA, Phencyclidine radioligand binding (ligand: [3H] TCP); assay type: cell membranes, Rattus norvegicus, Wistar, Cerebral cortex, Membrane; settings: Not Active = under 50% inhibition at 10 µM
[6] = DRUGMATRIX: Interleukin IL-1 radioligand binding (ligand: [125I] interleukin 1beta); assay type: cell membranes, Membrane; settings: nih3t3; Not Active = under 50% inhibition at 10 µM
[7] = biological target: T2, Cysteinyl leukotriene receptor 1 (Homo sapiens, UniProt Q9Y271); assay type: cell membranes, CHO-K1, Membrane; settings: cho-k1; further: in other assays of this panel Not Active means under 50% inhibition at 10 µM
T2 sequence (Q9Y271 whole entry): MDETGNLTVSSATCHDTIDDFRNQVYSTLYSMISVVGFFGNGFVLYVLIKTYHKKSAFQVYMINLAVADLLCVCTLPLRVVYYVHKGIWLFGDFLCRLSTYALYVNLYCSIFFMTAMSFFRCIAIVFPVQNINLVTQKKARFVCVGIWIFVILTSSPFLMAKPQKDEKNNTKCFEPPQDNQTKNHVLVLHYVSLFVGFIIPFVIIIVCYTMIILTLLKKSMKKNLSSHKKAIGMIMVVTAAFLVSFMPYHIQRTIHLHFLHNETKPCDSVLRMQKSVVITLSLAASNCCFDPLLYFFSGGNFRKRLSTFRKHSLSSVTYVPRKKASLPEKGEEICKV

Mu-type opioid receptor = Mu-type opioid receptor (Homo sapiens, UniProt P35372); assay: DRUGMATRIX: Opiate mu (OP3, MOP) radioligand binding (ligand: [3H] Diprenorphine); assay type: cell membranes, CHO-K1, Membrane; settings: cho-k1; Not Active = under 50% inhibition at 10 µM
Mu-type opioid receptor, sequence (P35372 whole entry): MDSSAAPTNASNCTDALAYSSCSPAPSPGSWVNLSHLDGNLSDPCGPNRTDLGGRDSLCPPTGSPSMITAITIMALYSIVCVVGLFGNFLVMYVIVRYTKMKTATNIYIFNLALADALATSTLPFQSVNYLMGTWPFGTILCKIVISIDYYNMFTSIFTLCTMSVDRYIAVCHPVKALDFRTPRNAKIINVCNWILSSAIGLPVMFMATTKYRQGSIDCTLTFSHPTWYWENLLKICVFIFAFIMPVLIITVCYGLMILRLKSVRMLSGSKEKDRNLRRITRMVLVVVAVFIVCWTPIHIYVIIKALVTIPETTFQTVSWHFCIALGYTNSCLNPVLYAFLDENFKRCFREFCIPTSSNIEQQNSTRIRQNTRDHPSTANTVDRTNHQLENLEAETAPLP

[8] = DRUGMATRIX: Potassium Channel [KATP] radioligand binding (ligand: [3H] Glyburide); assay type: cell membranes, Membrane; settings: hit-t15; Not Active = under 50% inhibition at 10 µM
[9] = biological target: T3, Angiotensin-converting enzyme (Oryctolagus cuniculus, UniProt P12822); assay: biochemical; assay type: tissue-based, Lung;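 further: enzymatic inhibition of angiotensin-converting enzyme measured with FAPGG as the substrate; in other assays of this panel Not Active means under 50% inhibition at 10 µM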
T3 sequence (P12822 whole entry): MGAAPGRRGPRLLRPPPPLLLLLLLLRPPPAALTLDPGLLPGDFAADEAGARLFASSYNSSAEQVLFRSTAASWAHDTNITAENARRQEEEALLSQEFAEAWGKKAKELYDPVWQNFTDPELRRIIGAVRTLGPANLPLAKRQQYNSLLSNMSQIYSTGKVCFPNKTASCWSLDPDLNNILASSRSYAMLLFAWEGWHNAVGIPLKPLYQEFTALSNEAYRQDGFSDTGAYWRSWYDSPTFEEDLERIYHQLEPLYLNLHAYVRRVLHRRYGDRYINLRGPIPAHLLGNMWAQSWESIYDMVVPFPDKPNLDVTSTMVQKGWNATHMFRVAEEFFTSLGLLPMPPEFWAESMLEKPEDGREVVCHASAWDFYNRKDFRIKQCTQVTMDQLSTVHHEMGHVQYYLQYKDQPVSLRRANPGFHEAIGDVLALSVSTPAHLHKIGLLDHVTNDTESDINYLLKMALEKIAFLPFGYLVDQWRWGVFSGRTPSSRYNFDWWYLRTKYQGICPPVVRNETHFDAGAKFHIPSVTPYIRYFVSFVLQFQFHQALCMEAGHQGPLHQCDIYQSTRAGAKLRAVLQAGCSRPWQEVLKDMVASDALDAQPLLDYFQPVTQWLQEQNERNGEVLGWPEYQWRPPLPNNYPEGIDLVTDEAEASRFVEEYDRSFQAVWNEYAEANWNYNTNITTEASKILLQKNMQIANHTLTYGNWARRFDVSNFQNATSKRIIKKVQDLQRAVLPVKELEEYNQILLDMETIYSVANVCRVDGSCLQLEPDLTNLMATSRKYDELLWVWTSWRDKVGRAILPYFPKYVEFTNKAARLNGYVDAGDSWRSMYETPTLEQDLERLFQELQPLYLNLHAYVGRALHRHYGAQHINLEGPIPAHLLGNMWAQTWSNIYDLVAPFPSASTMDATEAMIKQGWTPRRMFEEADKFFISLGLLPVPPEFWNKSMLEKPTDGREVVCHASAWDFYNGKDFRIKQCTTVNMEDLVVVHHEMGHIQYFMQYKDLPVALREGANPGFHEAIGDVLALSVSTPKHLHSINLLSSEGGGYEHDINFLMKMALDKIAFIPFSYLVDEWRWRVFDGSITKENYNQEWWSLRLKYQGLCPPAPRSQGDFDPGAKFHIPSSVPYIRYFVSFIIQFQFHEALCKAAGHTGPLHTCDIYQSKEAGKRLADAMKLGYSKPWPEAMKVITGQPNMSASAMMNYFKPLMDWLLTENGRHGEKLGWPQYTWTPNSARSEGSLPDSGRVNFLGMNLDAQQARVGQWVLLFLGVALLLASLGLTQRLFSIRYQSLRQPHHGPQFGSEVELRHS

[10] = DRUGMATRIX: Purinergic P2X radioligand binding (ligand: [3H] alpha, beta-Methylene-ATP); assay type: cell membranes, Oryctolagus cuniculus, New Zealand albino, Urinary bladder, Membrane; settings: Not Active = under 50% inhibition at 10 µM
Cytochrome P450 3A4 = Cytochrome P450 3A4 (Homo sapiens, UniProt P08684); settings: bti-tn-5b1-4; further: in other assays of this panel Not Active means under 50% inhibition at 10 µM
Cytochrome P450 3A4, sequence (P08684 whole entry): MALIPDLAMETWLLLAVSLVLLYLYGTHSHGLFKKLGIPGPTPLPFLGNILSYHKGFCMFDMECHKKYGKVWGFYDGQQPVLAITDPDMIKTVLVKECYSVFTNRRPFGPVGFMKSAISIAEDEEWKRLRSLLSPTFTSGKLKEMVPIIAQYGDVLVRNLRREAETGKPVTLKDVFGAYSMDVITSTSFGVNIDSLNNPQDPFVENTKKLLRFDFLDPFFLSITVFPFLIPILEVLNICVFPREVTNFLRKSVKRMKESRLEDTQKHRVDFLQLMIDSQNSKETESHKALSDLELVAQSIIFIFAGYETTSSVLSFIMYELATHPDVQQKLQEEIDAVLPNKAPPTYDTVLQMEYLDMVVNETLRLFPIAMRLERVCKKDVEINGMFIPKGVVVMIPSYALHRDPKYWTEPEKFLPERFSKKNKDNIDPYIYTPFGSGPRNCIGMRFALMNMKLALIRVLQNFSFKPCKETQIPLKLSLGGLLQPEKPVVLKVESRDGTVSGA

[11] = biological target: Voltage-gated inwardly rectifying potassium channel KCNH2 (Homo sapiens, UniProt Q12809); settings: hek293; further: in other assays of this panel Not Active means under 50% inhibition at 10 µM
Voltage-gated inwardly rectifying potassium channel KCNH2, sequence (Q12809 whole entry): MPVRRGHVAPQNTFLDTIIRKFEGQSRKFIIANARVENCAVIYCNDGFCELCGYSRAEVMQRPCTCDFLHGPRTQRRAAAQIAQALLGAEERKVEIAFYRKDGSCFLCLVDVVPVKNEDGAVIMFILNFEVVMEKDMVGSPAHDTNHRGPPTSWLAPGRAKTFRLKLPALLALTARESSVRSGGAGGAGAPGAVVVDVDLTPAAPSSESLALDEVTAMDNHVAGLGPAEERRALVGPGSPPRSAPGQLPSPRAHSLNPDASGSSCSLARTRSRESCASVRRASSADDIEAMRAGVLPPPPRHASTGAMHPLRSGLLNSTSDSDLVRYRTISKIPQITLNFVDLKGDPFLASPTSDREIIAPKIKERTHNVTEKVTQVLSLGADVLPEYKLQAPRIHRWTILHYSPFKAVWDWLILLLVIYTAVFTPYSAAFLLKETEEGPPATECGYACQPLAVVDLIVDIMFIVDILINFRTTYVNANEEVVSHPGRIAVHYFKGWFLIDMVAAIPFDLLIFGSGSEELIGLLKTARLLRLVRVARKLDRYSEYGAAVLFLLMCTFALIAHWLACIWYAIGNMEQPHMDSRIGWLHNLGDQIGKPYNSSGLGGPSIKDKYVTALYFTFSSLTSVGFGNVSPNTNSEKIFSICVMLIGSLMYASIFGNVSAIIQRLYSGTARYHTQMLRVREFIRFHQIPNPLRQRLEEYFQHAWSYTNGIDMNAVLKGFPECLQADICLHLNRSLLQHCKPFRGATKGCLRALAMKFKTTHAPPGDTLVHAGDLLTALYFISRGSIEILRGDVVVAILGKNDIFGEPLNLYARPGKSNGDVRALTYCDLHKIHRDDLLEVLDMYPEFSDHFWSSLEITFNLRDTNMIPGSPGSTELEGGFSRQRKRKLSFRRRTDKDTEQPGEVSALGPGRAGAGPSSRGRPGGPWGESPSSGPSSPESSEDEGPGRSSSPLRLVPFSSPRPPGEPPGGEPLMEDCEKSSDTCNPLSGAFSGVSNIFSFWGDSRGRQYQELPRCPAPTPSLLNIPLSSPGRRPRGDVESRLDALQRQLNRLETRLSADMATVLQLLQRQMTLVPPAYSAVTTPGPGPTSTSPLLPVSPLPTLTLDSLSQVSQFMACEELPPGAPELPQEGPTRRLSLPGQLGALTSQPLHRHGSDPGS

C=C1C(=O)O[C@@H]2C3O[C@]3(C)CC/C=C(\C)CC[C@@H]12 (stereo partly drawn)
Not Active: IC50 [1] | IC50 [2] | Ki [2] | IC50 [3] | IC50 [4] | Ki [4] | IC50 [5] | Ki [5] | IC50 [6] | Ki [6] | IC50 [7] | IC50 (Mu-type opioid receptor) | IC50 [8] | Ki [8] | IC50 [9] | IC50 [10] | Ki [10] | IC50 (Cytochrome P450 3A4) | Ki (Cytochrome P450 3A4) | IC50 [11] | Ki [11]

CC[C@@]1(O)C(=O)OCc2c1cc1n(c2=O)Cc2cc3ccccc3nc2-1 [CAMPTOTHECIN]
Not Active: IC50 [1] | IC50 [2] | Ki [2] | IC50 [3] | IC50 [4] | Ki [4] | IC50 [5] | Ki [5] | IC50 [6] | Ki [6] | IC50 [7] | IC50 (Mu-type opioid receptor) | IC50 [8] | Ki [8] | IC50 [9] | IC50 [10] | Ki [10] | IC50 (Cytochrome P450 3A4) | Ki (Cytochrome P450 3A4) | IC50 [11] | Ki [11]

O=C1CCc2cc(OCCCCc3nnnn3C3CCCCC3)ccc2N1 [CILOSTAZOL]
Not Active: IC50 [1] | IC50 [2] | Ki [2] | IC50 [3] | IC50 [4] | Ki [4] | IC50 [5] | Ki [5] | IC50 [6] | Ki [6] | IC50 [7] | IC50 (Mu-type opioid receptor) | IC50 [8] | Ki [8] | IC50 [9] | IC50 [10] | Ki [10] | IC50 (Cytochrome P450 3A4) | Ki (Cytochrome P450 3A4) | IC50 [11] | Ki [11]
